From patent US5212189A, “Thiadiazole or oxadiazole analogs of fenamic acids containing substituted hydroxamate side chains as antiinflammatory agents” (Warner-Lambert Company, priority 1991, dated 1993)
Where two headings read alike, the source gives them in different places.

Tests used:
[1] = biological target: T1, 5-lipoxygenase (Rattus norvegicus, UniProt P12527); experiment: ARBL whole cell 5-lipoxygenase assay: inhibition of LTB4 formation in A23187-stimulated RBL-1 cells; assay type: cell-based; conditions: RBL-1 whole cells; for IC50: RIA of LTB4
T1 construct: host or cells: RBL-1 (rat basophilic leukemia)
T1 sequence (P12527 1-673): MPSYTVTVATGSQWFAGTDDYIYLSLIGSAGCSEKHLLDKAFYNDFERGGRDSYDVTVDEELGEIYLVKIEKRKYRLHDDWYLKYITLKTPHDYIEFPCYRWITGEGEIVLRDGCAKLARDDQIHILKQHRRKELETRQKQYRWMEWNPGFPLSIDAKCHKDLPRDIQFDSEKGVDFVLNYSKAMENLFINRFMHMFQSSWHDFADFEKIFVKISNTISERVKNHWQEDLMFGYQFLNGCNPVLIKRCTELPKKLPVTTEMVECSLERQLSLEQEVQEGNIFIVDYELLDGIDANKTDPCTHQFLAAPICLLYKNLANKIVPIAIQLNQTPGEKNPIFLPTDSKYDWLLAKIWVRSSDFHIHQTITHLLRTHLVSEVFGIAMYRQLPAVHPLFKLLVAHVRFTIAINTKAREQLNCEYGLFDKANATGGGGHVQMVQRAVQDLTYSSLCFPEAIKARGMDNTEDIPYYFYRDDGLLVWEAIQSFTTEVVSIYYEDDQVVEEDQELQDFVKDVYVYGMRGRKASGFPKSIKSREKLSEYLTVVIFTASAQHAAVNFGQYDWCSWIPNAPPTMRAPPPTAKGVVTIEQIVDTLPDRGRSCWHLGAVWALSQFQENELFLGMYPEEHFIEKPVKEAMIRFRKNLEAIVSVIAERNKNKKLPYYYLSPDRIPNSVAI
Procedure: (§1) ARBL/ARBC WHOLE CELL 5-LIPOXYGENASE AND CYCLOOXYGENASE ASSAYS
(§2) The rat basophilic leukemia cell line (RBL-1) was obtained from the American Type Culture Collection (Rockville, MD).
(§3) Radioimmunoassay (RIA) kits of LTB4 and PGF2α were obtained from Amersham (Arlington Heights, Ill.) and Seragen (Boston, Mass.), respectively.
(§4) RBL-1 cells are grown in suspension culture in Eagle's minimum essential medium supplemented with 12% fetal bovine serum at 37° C. in an incubator supplied with air 5% carbon dioxide. Cells are harvested by centrifugation. They are washed with cold phosphate-buffered saline, pH 7.4 (PBS; NaCl, 7.1 g; Na2 HPO4, 1.15 g; KH2 PO4, 0.2 g; and KCl, 0.2 g/L). Cells are finally suspended in PBS containing 1.0 mM calcium at a density of 2 × 10^6 cells/mL Cells are incubated and without test agent (in DMSO) (1% DMSO is without effect on arachidonic acid metabolism) for 10 minutes at room temperature. Calcium ionophore A23187 (5 μM) is added and cells are incubated for 7 minutes at 37° C. The reaction is stopped by chilling the tubes on ice for 10 minutes. Cells are separated by centrifugation and the supernatant is stored at -20° C. Aliquots (100 μL) are analyzed for LTB4 and PGF2α using radioimmunoassay kits as provided by the supplier.
(§5) Table 1 contains biochemical data for compounds of Formula I obtained from this whole cell assay as amount of inhibition at 10 μM or IC50 s which are calculated as the concentration of a test compound in micromoles (μM) causing 50% inhibition of LTB4 or PGF2α formation.

[2] = biological target: T2, cyclooxygenase (Rattus norvegicus, UniProt Q63921); experiment: ARBC whole cell cyclooxygenase assay: inhibition of PGF2α formation in A23187-stimulated RBL-1 cells; assay type: cell-based; conditions: RBL-1 whole cells; for IC50: RIA of PGF2α
T2 construct: host or cells: RBL-1 (rat basophilic leukemia)
T2 sequence (Q63921 27-602): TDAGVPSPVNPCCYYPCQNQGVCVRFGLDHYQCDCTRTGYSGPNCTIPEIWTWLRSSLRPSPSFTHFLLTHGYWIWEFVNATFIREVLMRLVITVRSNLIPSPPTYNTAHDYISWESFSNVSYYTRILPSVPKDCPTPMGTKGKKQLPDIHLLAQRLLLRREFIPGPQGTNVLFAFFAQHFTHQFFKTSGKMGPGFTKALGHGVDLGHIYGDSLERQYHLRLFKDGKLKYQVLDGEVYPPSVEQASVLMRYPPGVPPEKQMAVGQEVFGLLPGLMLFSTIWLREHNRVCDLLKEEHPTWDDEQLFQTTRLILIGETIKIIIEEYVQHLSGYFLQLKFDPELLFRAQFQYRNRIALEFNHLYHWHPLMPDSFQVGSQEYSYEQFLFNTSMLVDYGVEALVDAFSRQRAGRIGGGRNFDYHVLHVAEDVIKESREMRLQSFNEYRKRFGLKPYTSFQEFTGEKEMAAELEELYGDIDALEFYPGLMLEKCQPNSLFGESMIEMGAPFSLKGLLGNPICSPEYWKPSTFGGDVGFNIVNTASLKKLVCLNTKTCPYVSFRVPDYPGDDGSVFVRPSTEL
Procedure: as §1, §2, §3, §4, §5

[3] = read-out: ARBL, amount of inhibition of LTB4 at 10 μM
[4] = read-out: ARBC, inhibition of PGF2α at 10 μM (class symbol)
[5] = read-out: ARBL, inhibition of LTB4 at 10 μM (class symbol)

Row | Compound | IC50 [1] | IC50 [2] | inhibition at 10 µM [2, 4] | other results
1 | CC(=O)N(O)C(C)c1cccc(Nc2ccccc2-c2n[nH]c(=S)o2)c1Cl (stereo not shown) [Example 7, N-[1-[3-[[2-(4,5-Dihydro-5-thioxo-1,3,4 oxadiazol-2-yl)phenyl]amino]-2-chlorophenyl]ethyl]-N-hydroxy Acetamide] | 9590 nM | 1070 nM |  | 
2 | CC(=O)N(O)C(C)c1cccc(Nc2ccccc2-c2n[nH]c(=S)o2)c1C (stereo not shown) [Example 8, N-[1-[3-[[2-(4,5-dihydro-5 thioxo 1,3,4-oxadiazol-2 yl)phenyl]amino]-2 methylphenyl]ethyl]-N-hydroxyacetamide] |  |  | < 40% | inhibition at 10 µM [1, 3]: 66%
3 | CC(=O)N(O)C(C)c1c(C)ccc(Nc2ccccc2-c2n[nH]c(=S)o2)c1C (stereo not shown) [Example 9, N-[1-[3-[[2-(4,5-dihydro-5-thioxo 1,3,4-oxadiazol-2 yl)phenyl]amino]-2,6 dimethylphenyl]ethyl]-N-hydroxyacetamide] | 5930 nM | > 10000 nM |  | 
4 | CC(=O)N(O)C(C)c1cccc(Nc2ccccc2-c2n[nH]c(=S)o2)c1 (stereo not shown) [Example 10, N-[1-[3-[[2-(4,5-dihydro-5-thioxo-1,3,4-oxadiazol-2-yl)phenyl]amino]phenyl]ethyl]-N-hydroxyacetamide] |  |  | < 40% | inhibition at 10 µM [1, 5]: < 40%
5 | CCOC(=O)N(O)C(C)c1cccc(Nc2ccccc2-c2n[nH]c(=S)o2)c1Cl (stereo not shown) [Example 11, Ethyl ester of [1-[2-chloro-3-[[2-(4,5-dihydro-5-thioxo-1,3,4 oxadiazol-2-yl)phenyl]amino]phenyl]-ethyl]hydroxycarbamic acid] | 1140 nM | 910 nM |  | 
6 | CNC(=O)N(O)C(C)c1cccc(Nc2ccccc2-c2n[nH]c(=S)o2)c1Cl (stereo not shown) [Example 12, N-[1-[2-chloro-3-[[(4,5-dihydro-5-thioxo-1,3,4-oxadiazol-2-yl)phenyl]amino]phenyl]ethyl]-N-hydroxy-N'-methylurea] |  |  |  | inhibition at 10 µM [1, 5]: < 40%; inhibition at 10 µM ([2]; read-out: ARBC, amount of inhibition of PGF2α at 10 μM): 100%
7 | CC(=O)N(O)C(C)c1cccc(Nc2ccccc2-c2n[nH]c(=O)o2)c1Cl (stereo not shown) [Example 13] | 680 nM | 1880 nM |  | 

Second part, led by results:

Row | IC50 [1] | IC50 [2] | inhibition at 10 µM [2, 4] | Compound | other results
8 |  |  | < 40% | CC(=O)N(O)C(C)c1cccc(Nc2ccccc2-c2n[nH]c(=O)o2)c1 (stereo not shown) [Example 14, N-[1-[3-[[2-(4,5-dihydro-5-oxo-1,3,4-oxadiazol-2-yl)phenyl]amino]phenyl]ethyl]-N-hydroxyacetamide] | inhibition at 10 µM [1, 3]: 100%
9 | 1090 nM | 860 nM |  | CCOC(=O)N(O)C(C)c1cccc(Nc2ccccc2-c2n[nH]c(=O)o2)c1Cl (stereo not shown) [Example 15, Ethyl ester of [1-[2-chloro-3-[[2-(4,5-dihydro-5-oxo-1,3,4-voxadiazol-2-yl)phenyl]amino]phenyl]-ethyl]hydroxycarbamic acid] | 
10 | 1870 nM | 360 nM |  | CNC(=O)N(O)C(C)c1cccc(Nc2ccccc2-c2n[nH]c(=O)o2)c1Cl (stereo not shown) [Example 16] | 
11 |  |  | < 40% | CC(=O)N(O)C(C)c1cccc(Nc2ccccc2-c2nnc(N)o2)c1Cl (stereo not shown) [Example 17, N-[1-[3-[[2-(5-Amino-1,3,4-oxadiazol-2-yl)phenyl]amino]-2-chlorophenyl]ethyl]-N-hydroxyacetamide] | inhibition at 10 µM [1, 3]: 100%
